The values that follow come from patent EP0791044B1, “HYDROPHOBIC PEROXYACID BLEACH PRECURSOR COMPOSITIONS STABILISED WITH A WATER SOLUBLE CARBOXYLIC ACID” (THE PROCTER & GAMBLE COMPANY, priority 1994, dated 1996).

The nature of this data set: Beaker Perhydrolysis Test (Sotax Dissolution Tester) of model detergent formulation containing the precursor material. Type of data set: physicochemical. The note with it: for peroxyacid yield: percent of the theoretically available weight of peracid. The procedure:
For the purpose of the present invention, unrestrained dissolution conditions are defined as those existing in the Beaker Perhydrolysis Test as carried out using a Sotax Dissolution Tester Model AT6 supplied by Sotax AG CH-4008 BASEL Switzerland. This Apparatus comprises an array of polycarbonate beakers, each capable of holding 1 litre of water, supported in a thermostatically controlled water bath. Each beaker is provided with a paddle stirrer whose speed can be controlled.
Add 5ml potassium iodide solution to the first titration beaker. • 7- Take a 10ml aliquot from Sotax beaker No. 1 and discharge into the first titration beaker at t=1 minute. • 8- Add the second sample to Sotax beaker No.2 at t= 1 minute and add 5 ml potassium iodide to a second titration beaker. • 9- Titrate the first aliquot against 0.005 M sodium thiosulphate solution until the solution is first decolourised (The colour is slowly regenerated as the solution warms and the perhydrate reacts with the iodide). • 10- Take a 10 ml aliquot from Sotax beaker No.2 at t= 2 minutes and discharge into the second titration beaker and repeat step . • 11- Take further aliquots at the following times (t= minutes)
The aliquots from Beaker No. 1 at 1 minute and from Beaker No. 2 at 2 minutes constitutes replicates and the results are averaged to give a figure from which the % perhydrolysis is calculated.
Material from each example was then incorporated into a model detergent formulation having the composition in % by weight.
The four formulations were then subjected to a Beaker Perhydrolysis Test as hereinbefore described and gave the peroxyacid yields shown in Table 1. Results are given for 1, 3, 5 & 10 minutes elapsed time and are expressed in percent of the theoretically available weight of peracid.

For “benzoyl caprolactam [3 (benzoyl caprolactam)]”, the perhydrolysis rate entry (effect of agglomeration with citric acid versus raw material form, 40°C) is “No such enhancement”. In addition, the peroxyacid yield reads like this: (1 minute from start of perhydrolysis, Temperature = 40°C, water 12° Clark) 14%; (3 minutes from start of perhydrolysis, Temperature = 40°C, water 12° Clark) 37%; (5 minutes from start of perhydrolysis, Temperature = 40°C, water 12° Clark) 52%; (10 minutes from start of perhydrolysis, Temperature = 40°C, water 12° Clark) 71%.

Regarding `CCCCCCCCCC(=O)NCCCCCC(=O)Oc1ccc(S(=O)(=O)O)cc1` [C10 oxybenzenesulfonate (raw material), (6-decanamido-caproyl) oxybenzenesulfonate], the peroxyacid yield reads like this: (3 minutes from start of perhydrolysis, Temperature = 30°C, hard water (25° Clarck)) 25%; (5 minutes from start of perhydrolysis, Temperature = 30°C, hard water (25° Clarck)) 31%; (10 minutes from start of perhydrolysis, Temperature = 30°C, hard water (25° Clarck)) 34%.
